Assay [1] has as its target T1, IppB (Rhodococcus sp. D-6, UniProt A0AAU7V3K6, E120A, form not given).
T1 sequence (A0AAU7V3K6 1-190 E120A): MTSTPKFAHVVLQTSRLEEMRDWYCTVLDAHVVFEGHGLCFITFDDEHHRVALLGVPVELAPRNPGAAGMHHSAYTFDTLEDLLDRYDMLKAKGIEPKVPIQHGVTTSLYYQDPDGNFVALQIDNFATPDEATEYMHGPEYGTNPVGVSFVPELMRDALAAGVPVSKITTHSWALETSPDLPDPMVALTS
Nature of the assay: enzyme activity assay. Format: biochemical. Conditions: standard assay 200 µM substrate, 1.0 µM enzyme, 10 µM Fe^2+; 20 mM Tris-HCl pH 7.4, 30°C; Fe(II)-binding residue.

The target of assay [2] is T2, IppB (Rhodococcus sp. D-6, UniProt A0AAU7V3K6).
T2 sequence (A0AAU7V3K6 1-190): T1 sequence (A0AAU7V3K6 1-190 E120A) with A120E
Kind of assay: Michaelis-Menten kinetics, nonlinear regression. The format is biochemical. Conditions: 1.0 µM IppB, 10 µM Fe^2+; 20 mM Tris-HCl pH 7.4, 30°C; read-out: apparent Km.

The target of assay [3] is T3, IppB (Rhodococcus sp. D-6, UniProt A0AAU7V3K6, H72A, form not given).
T3 sequence (A0AAU7V3K6 1-190 H72A): T1 sequence (A0AAU7V3K6 1-190 E120A) with H72A, A120E
Nature of the assay: enzyme activity assay. The format is biochemical. The following applies: standard assay 200 µM substrate, 1.0 µM enzyme, 10 µM Fe^2+; 20 mM Tris-HCl pH 7.4, 30°C; Fe(II)-binding residue.

Assay [4] has as its target T4, IppB (Rhodococcus sp. D-6, UniProt A0AAU7V3K6, H9A, form not given).
T4 sequence (A0AAU7V3K6 1-190 H9A): T1 sequence (A0AAU7V3K6 1-190 E120A) with H9A, A120E
Nature of the assay: enzyme activity assay. Format: biochemical. Conditions: standard assay 200 µM substrate, 1.0 µM enzyme, 10 µM Fe^2+; 20 mM Tris-HCl pH 7.4, 30°C; Fe(II)-binding residue.

The subject of assay [5] is T5, IppA1A2 (IppA1 with reductase component IppA2).
T5 construct: mixed at molar ratio 3:1 in assay; with 2-isopropylphenol monooxygenase, reductase component (flavin reductase)
Nature of the assay: Michaelis-Menten kinetics, nonlinear regression. Format: biochemical, Rhodococcus sp. D-6. The following applies: 250 µM NADH, 10 µM FAD, 1.2 µM IppA1, 0.4 µM IppA2; 20 mM Tris-HCl pH 7.4, 30°C; read-out: apparent Km.

Changes are numbered by the printed parent chain.

Regarding `CC(C)c1cc(O)ccc1O` [2-isopropylhydroquinone], the “activity lost (no turnover)” value in assay [1], in assay [3] and in assay [4] was “all variants lost their activity against 2-isopropylhydroquinone” throughout. In addition, in assay [2], the Km is 29.1 ± 1.54 µM.

Turning to `CC(C)c1ccccc1O` [2-isopropylphenol], the Km in assay [5] is 60.5 ± 1.27 µM.

In general, Km refers to the substrate concentration at which the rate is half of its maximum.

Source of the values: paper PMC12442392, “Identification of a novel ipp gene cluster responsible for 2-isopropylphenol degradation in strain Rhodococcus sp. D-6” (Applied and Environmental Microbiology, 2025).
